The source of these data is EP0023761B1, “Tetrahydroisoquinoline derivatives, process for preparing them and compositions containing them” (priority 1979, dated 1981).

Counter-ions that a name gives are not always drawn.

The target of experiment [1] is T1, phenylethanolamine N-methyltransferase (Oryctolagus cuniculus, UniProt G1TT82).
T1 sequence (G1TT82 1-286): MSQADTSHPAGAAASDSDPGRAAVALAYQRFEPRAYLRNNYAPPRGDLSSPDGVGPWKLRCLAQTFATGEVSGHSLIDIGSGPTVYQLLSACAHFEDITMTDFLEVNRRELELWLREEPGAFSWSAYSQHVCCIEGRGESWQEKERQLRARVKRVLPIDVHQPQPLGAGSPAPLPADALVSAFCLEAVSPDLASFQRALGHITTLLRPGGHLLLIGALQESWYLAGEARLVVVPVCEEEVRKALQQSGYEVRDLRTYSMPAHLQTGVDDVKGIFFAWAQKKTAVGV
In words: inhibition of phenylethanolamine N-methyltransferase in vitro (assay procedure of Pendleton and Snow). The class given is biochemical. As to conditions: read-out: inhibit phenylethanolamine N-methyltransferase; for inhibition at 100 µM: concentration 1.0 x 10-^4 (unit inferred); for inhibition at 1 µM: concentration 1.0 x 10-^6 (unit inferred).

Experiment [2] has as its system PNMT. The experiment is described as follows: in vivo PNMT inhibition in mice: adrenal epinephrine/norepinephrine ratio, measured fluorometrically. As to conditions: male mice, oral, 50 mg/kg per day, twice a day for seven days, dosed again next morning, sacrificed two hours later; vehicle control 2.5 + 0.23; p <.01. As for the experimental part:
Male mice were dosed orally with either drug or vehicle control on a twice-a-day basis for seven consecutive days. On the morning of the next day they were again dosed and two hours later sacrificed by decapitation. The adrenal glands were then removed and analyzed fluorometrically for both epinephrine and norepinephrine content.

As for `c1cc2nnsc2c2c1CCNC2` [[1,2,3]thiadiazolo[4,5-h]-6,7,8,9-tetrahydroisoquinoline hydrochloride], in experiment [1], the inhibition at 100 µM was determined as 99% and the inhibition at 1 µM was 91%.
As to `c1cc2snnc2c2c1CCNC2` [[1,2,3]thiadiazolo[5,4-h]-6,7,8,9-tetrahydroisoquinoline hydrochloride], in experiment [1], the inhibition at 100 µM is 99% and the inhibition at 1 µM was 94%. Also, the adrenal epinephrine/norepinephrine ratio in experiment [2] is reported as 1.3 ± 0.08.
